Key:
human CCR5 = target: T1, human CCR5 (Homo sapiens, UniProt P51681); assay: Inhibition of [125I]-RANTES binding to human CCR5 in CHO/CCR5 cells (CCR5 antagonistic activity); conditions: Test Compound 1 μM, 100 pM [125I]-RANTES, room temperature, 40 minutes, read-out: Inhibition Rate (CCR5 binding)
T1 construct: expressed in transfected cells; host or cells: CHO-K1 cells, electroporated with plasmid pCKR5 (pcDNA3.1 backbone), geneticin-selected (CHO/CCR5)
Protocol: Cloning of CCR5 gene was carried out by PCR (polymerase chain reaction) from human spleen cDNA. With using 0.5 ng of spleen cDNA (Toyobo, QUICK-Clone cDNA) as template, PCR was performed in DNA Thermal Cycler 480 (Perkin-Elmer) (reaction conditions: 30 cycles of 95° C. for 1 minute, 60° C. for 1 minute, and 75° C. for 5 minutes) by adding primer set, 5'-[…]-3' (25 pmol) and 5'-[…]-3' (25 pmol), which were designed referring to nucleotide sequence of CCR5 gene reported by Samson et al. (Biochemistry, 35(11), 3362-3367 (1996)) and by using TaKaRa EX Taq (TakaraShuzo). The resultant PCR product was subjected to agarose gel. electrophoresis to collect about 1.0 kb DNA fragment, which was subjected to Original TA Cloning Kit (Funakoshi) to carry out cloning of CCR5 gene.
The plasmid obtained in the above (1) was digested with restriction enzymes XbaI (Takara Shuzo) and BamHI (Takara Shuzo) and subjected to agarose gel electrophoresis to collect about 1.0 kb DNA fragment. The DNA fragment was mixed with plasmid pcDNA3.1 (Funakoshi) for expression in animal cells, said plasmid being digested with XbaI and BamHI, and they were ligated with DNA Ligation Kit Ver.2 (Takara Shuzo). The resulting plasmid was subjected to transformation of competent cell of E. coli JM109 (Takara Shuzo) to obtain plasmid pCKR5.
CHO-K1 cells were grown in 750 ml of tissue culture flask (Becton Dickinson) using Ham's F12 medium (Nihon Pharmaceutical) containing 10% fetal calf serum (Life Tech Oriental) and took off with 0.5 g/L trypsin-0.2 g/L EDTA (Life Tech Oriental). The cells were washed with PBS (Life Tech Oriental), centrifuged (1000 rpm, 5 minutes), and suspended in PBS. With using Gene Pulser (Bio-Rad Laboratories), DNA was introduced into the cells under the conditions shown below. That is, to the cuvette of 0.4 cm gap were added 8×10^6 cells and 10 μg of plasmid pCKR5 for expression of human CCR5, and electroporation was carried out under 0.25 kV of voltage and 960 μF of capacitance. The cells were transferred into Ham's F12 medium (Nihon Pharmaceutical) containing 10% fetal calf serum, and cultivated for 24 hours. The cells were again took off and centrifuged, and suspended in Ham's F12 medium (Nihon Pharmaceutical) containing 10% fetal calf serum and 500 μg/ml of geneticin (Life Tech Oriental). The suspension was diluted to give 10^4 cells/ml of the suspension, which was inoculated on 96 well plate (Becton Dickinson) to give geneticin resistant cells. The resulting geneticin resistant cells were cultivated in 96 well plate (Becton Dickinson), and cells expressing CCR5 were selected from the geneticin resistant cells. That is, in assay buffer (Ham's F12 medium containing 0.5% BSA and 20 mM HEPES (Wako Pure Chemical, pH7.2) to which was added 200 pM of [^125 I]-RANTES (Amersham) as ligand, binding reaction was carried out at room temperature for 40 minutes, and the buffer was washed with cooled PBS. To the buffer was added 50 μl/well of 1M NaOH, and the mixture was stirred. Radioactivity was determined with γ-counter to select CHO/CCR5 cells which specifically bind to the ligand.
The CHO/CCR5 were inoculated on 96 well microplate (5×10^4 cells/well) and cultivated for 24 hours. The medium was removed by means of suction, and to each well was added assay buffer containing Test Compound (1 μM) and then 100 pM of [^125 I]-RANTES (Amersham) as ligand. Binding assay was carried out at room temperature for 40 minutes, and assay buffer was removed by means of suction. Each well was washed twice with cooled PBS, and 200 μl of Microscint-20 (Packard Instrument, Inc.) was added to each well. Radio-activity was determined with Top-Count Micro Scintillation Counter (Packard Instrument, Inc.).
According to the method described above, inhibition rate of Test Compound (whose number is referred to in the following Examples) to CCR5 binding.

HIV-1 BA-L = assay: Inhibitory effect on HIV-1 infection to MAGI-CCR5 cell (β-galactosidase activity); type: cell-based; conditions: 100 μl of medium containing 1.6 μM Test Compound plus 100 μl of medium containing 300PFU HIV-1 BA-L; MAGI-CCR5 cells; 37° C., 2 days
Protocol: The plasmid where β-galactosidase gene was ligated downstream of HIV-1 LTR was introduced into CD4 positive HeLa cell, to which human CCR5 was further introduced to obtain transformant MAGI-CCR5. By using said transformant MAGI-CCR5, degree of HIV-1 infection was calculated from β-galactosidase activity (blue color due to decomposition of 5-bromo-4-chloro-3-indolyl-β-D-galactopyranoside). Specifically, MAGI-CCR5 cells were suspended in DMEM medium containing 10% serum to prepare 5×10^4 cells/ml suspension. To each well of 96 well plate was inoculated 200 μl of the suspension, and the cells were cultivated at 37° C. overnight. The medium was removed by means of suction, and to the residue was added 100 μl of the above medium containing 1.6 μM of Test Compound and 100 μl of the above medium containing 300PFU of HIV-1 BA-L cells. The cells were cultivated at 37° C. for 2 days. The medium was removed by means of suction. To the residue was added 200 μl of cell fixative (PBS containing 1% formaldehyde and 0.2% glutaraldehyde), and the mixture was allowed to stand at room temperature for 5 minutes and washed twice with PBS. To the mixture was added 100 μl of staining solution (PBS containing […] and 0.4 mg/ml X-gal), and the mixture was allowed to stand at 37° C. for 50 minutes and washed twice with PBS. The number of blue cells was counted by microscope and defined as the number of cells infected with HIV-1. According to this method, inhibition rate on HIV-1 infection was determined.

T1 sequence (P51681 whole entry): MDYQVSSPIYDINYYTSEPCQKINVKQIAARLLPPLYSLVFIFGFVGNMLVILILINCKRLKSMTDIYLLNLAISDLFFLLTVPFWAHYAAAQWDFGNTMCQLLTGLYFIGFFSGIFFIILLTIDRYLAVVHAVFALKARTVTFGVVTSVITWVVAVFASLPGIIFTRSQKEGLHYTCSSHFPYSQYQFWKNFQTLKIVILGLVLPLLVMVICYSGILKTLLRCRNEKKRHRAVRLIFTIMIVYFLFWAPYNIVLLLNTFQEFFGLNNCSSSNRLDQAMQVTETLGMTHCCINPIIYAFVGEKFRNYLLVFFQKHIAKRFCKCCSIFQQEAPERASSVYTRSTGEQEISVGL

With `CCCCOCCOc1ccc(-c2ccc3c(c2)C=C(C(=O)Nc2ccc(CN(C)C4CCOCC4)cc2)CCS3(=O)=O)cc1` [Compound 98, 7-[4-(2-butoxyethoxy)phenyl]-N-[4-[[N-methyl-N-(tetrahydropyran-4-yl)amino]methyl]phenyl]-1,1-dioxo-2,3-dihydro-1-benzothiepine-4-carboxamide] the inhibition at 1 µM (human CCR5) was 98% and the “Inhibition Rate (HIV-1 infection)” value (HIV-1 BA-L) was 91%.

Reference: patent US6235771A, “Anilide derivative, production and use thereof” (Takeda Chemical Industries, Ltd., priority 1998, dated 2001)
